Results published in article PMC9729598 (Bioorganic Chemistry, 2022).

Tested on: SARS-CoV-2 (wuhan-HU-1 variant)
Format: cell-based

Compound: C=C(C)[C@@H]1CC[C@]2(C(=O)O)CC[C@]3(C)[C@H](CC[C@@H]4[C@@]5(C)CC[C@H](O)C(C)(C)[C@@H]5CC[C@]43C)[C@@H]12 [BA, Betulinic acid]
- anti-SARS-CoV-2 activity: virtually inactive
